Assay results reported in patent US8802597B2, “Herbicidal pyrimidines” (E I du Pont de Nemours and Company, priority 2003, dated 2014).
Read-outs that look alike come from different tables or passages of the source.

Assays:
Assay type in all cases: in vivo
[1] = test system: barnyardgrass (Echinochloa crus-galli); experiment: Test A pre/postemergence; settings: Echinochloa crus-galli, 240 h, read-out: Plant response rating, Barnyardgrass; for pest or weed control at 125 g/ha: 125 g ai/ha; for pest or weed control at 500 g/ha: 500 g ai/ha
In short: (§1)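 Compared with untreated controls, treated plants were visually rated for injury on a 0 (none) to 100 (complete control) scale about ten days after spraying. Pre- and postemergence applications used one solvent/surfactant formulation; postemergence plants measured 2–10 cm.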

[2] = test system: crabgrass (Digitaria sanguinalis); experiment: Test A pre/postemergence; settings: Digitaria sanguinalis, 240 h, read-out: Plant response rating, Crabgrass; for pest or weed control at 125 g/ha: 125 g ai/ha; for pest or weed control at 500 g/ha: 500 g ai/ha
In short: as §1

[3] = test system: giant foxtail (Setaria faberi); experiment: Test A pre/postemergence; settings: Setaria faberi, 240 h, read-out: Plant response rating, Foxtail, Giant; for pest or weed control at 125 g/ha: 125 g ai/ha; for pest or weed control at 500 g/ha: 500 g ai/ha
In short: as §1

[4] = test system: morningglory (Ipomoea spp.); experiment: Test A pre/postemergence; settings: Ipomoea, 240 h, read-out: Plant response rating, Morningglory; for pest or weed control at 125 g/ha: 125 g ai/ha; for pest or weed control at 500 g/ha: 500 g ai/ha
In short: as §1

[5] = test system: redroot pigweed (Amaranthus retroflexus); experiment: Test A pre/postemergence; settings: Amaranthus retroflexus, 240 h, read-out: Plant response rating, Pigweed; for pest or weed control at 125 g/ha: 125 g ai/ha; for pest or weed control at 500 g/ha: 500 g ai/ha
In short: as §1

[6] = test system: velvetleaf (Abutilon theophrasti); experiment: Test A pre/postemergence; settings: Abutilon theophrasti, 240 h, read-out: Plant response rating, Velvetleaf; for pest or weed control at 125 g/ha: 125 g ai/ha; for pest or weed control at 500 g/ha: 500 g ai/ha
In short: as §1

[7] = test system: Surinam grass (Brachiaria decumbens); experiment: Test C pre/postemergence; settings: Urochloa decumbens; for pest or weed control at 8 g/ha: 8 g ai/ha; for pest or weed control at 16 g/ha: 16 g ai/ha; for pest or weed control at 31 g/ha: 31 g ai/ha; for pest or weed control at 62 g/ha: 62 g ai/ha
In short: (§2)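 Visual injury ratings, 0 (no effect) to 100 (complete control), made 12 to 14 days after treatment by comparison with untreated controls. Greenhouse plants received test chemical in a surfactant-containing non-phytotoxic solvent, either preemergence on planted seeds or postemergence at the 1- to 4-leaf stage.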

[8] = test system: crabgrass (Digitaria sanguinalis); experiment: Test C pre/postemergence; settings: Digitaria sanguinalis; for pest or weed control at 8 g/ha: 8 g ai/ha; for pest or weed control at 16 g/ha: 16 g ai/ha; for pest or weed control at 31 g/ha: 31 g ai/ha; for pest or weed control at 62 g/ha: 62 g ai/ha
In short: as §2

[9] = test system: giant foxtail (Setaria faberii); experiment: Test C pre/postemergence; settings: Setaria faberi; for pest or weed control at 8 g/ha: 8 g ai/ha; for pest or weed control at 31 g/ha: 31 g ai/ha; for pest or weed control at 62 g/ha: 62 g ai/ha
In short: as §2

[10] = test system: yellow nutsedge (Cyperus esculentus); experiment: Test C pre/postemergence; settings: Cyperus; for pest or weed control at 8 g/ha: 8 g ai/ha; for pest or weed control at 16 g/ha: 16 g ai/ha; for pest or weed control at 31 g/ha: 31 g ai/ha; for pest or weed control at 62 g/ha: 62 g ai/ha
In short: as §2

[11] = test system: chickweed (Stellaria media); experiment: Test C postemergence; settings: Stellaria media, post-emergence
In short: as §2

[12] = post-emergence, Postemergence, 0 to 100 scale (0 no effect, 100 complete control)
[13] = pre-emergence, Preemergence, 0 to 100 scale where 0 is no effect and 100 is complete control, approximately ten days
[14] = post-emergence, Postemergence, read-out: Plant response rating (scale of 0 to 100), Surinam Grass
[15] = pre-emergence, Preemergence, scale 0 to 100, 0 no effect, 100 complete control, read-out: Plant response rating, Surinam Grass
[16] = post-emergence, Postemergence, read-out: Plant response rating (scale of 0 to 100), Crabgrass
[17] = pre-emergence, Preemergence, scale 0 to 100, 0 no effect, 100 complete control, read-out: Plant response rating, Crabgrass
[18] = post-emergence, Postemergence, read-out: Plant response rating (scale of 0 to 100), Foxtail, Giant
[19] = pre-emergence, Preemergence, scale 0 to 100, 0 no effect, 100 complete control, read-out: Plant response rating, Foxtail, Giant
[20] = post-emergence, Postemergence, read-out: Plant response rating (scale of 0 to 100), Nutsedge, Yellow
[21] = pre-emergence, Preemergence, scale 0 to 100, 0 no effect, 100 complete control, read-out: Plant response rating, Nutsedge, Yellow

## Nc1nc(-c2ccc(Br)cc2)nc(C(=O)O)c1Cl [Compound 95, 6-amino-2-(4-bromophenyl)-5-chloro-4-pyrimidinecarboxylic acid]
[1]; [12]
  pest or weed control at 125 g/ha: 75%
  pest or weed control at 500 g/ha: 90%
[1]; [13]
  pest or weed control at 125 g/ha: 20%
  pest or weed control at 500 g/ha: 80%
[2]; [12]
  pest or weed control at 125 g/ha: 70%
  pest or weed control at 500 g/ha: 80%
[2]; [13]
  pest or weed control at 125 g/ha: 65%
  pest or weed control at 500 g/ha: 85%
[3]; [12]
  pest or weed control at 125 g/ha: 85%
  pest or weed control at 500 g/ha: 85%
[3]; [13]
  pest or weed control at 125 g/ha: 65%
  pest or weed control at 500 g/ha: 90%
[4]; [12]
  pest or weed control at 125 g/ha: 75%
  pest or weed control at 500 g/ha: 80%
[4]; [13]
  pest or weed control at 125 g/ha: 80%
  pest or weed control at 500 g/ha: 85%
[5]; [12]
  pest or weed control at 125 g/ha: 85%
  pest or weed control at 500 g/ha: 95%
[5]; [13]
  pest or weed control at 125 g/ha: 95%
  pest or weed control at 500 g/ha: 100%
[6]; [12]
  pest or weed control at 125 g/ha: 90%
  pest or weed control at 500 g/ha: 95%
[6]; [13]
  pest or weed control at 125 g/ha: 55%
  pest or weed control at 500 g/ha: 95%
[7]; post-emergence, Postemergence, scale 0 to 100, read-out: Plant response rating, Surinam Grass
  pest or weed control at 8 g/ha: 55%
[7]; [14]
  pest or weed control at 16 g/ha: 65%
  pest or weed control at 31 g/ha: 70%
  pest or weed control at 62 g/ha: 75%
[7]; pre-emergence, Preemergence, scale 0 to 100 (0 no effect, 100 complete control), read-out: Plant response rating, Surinam Grass
  pest or weed control at 8 g/ha: 0%
[7]; [15]
  pest or weed control at 16 g/ha: 0%
  pest or weed control at 31 g/ha: 5%
  pest or weed control at 62 g/ha: 10%
[8]; post-emergence, Postemergence, scale 0 to 100, read-out: Plant response rating, Crabgrass
  pest or weed control at 8 g/ha: 75%
[8]; [16]
  pest or weed control at 16 g/ha: 75%
  pest or weed control at 31 g/ha: 80%
  pest or weed control at 62 g/ha: 80%
[8]; pre-emergence, Preemergence, scale 0 to 100 (0 no effect, 100 complete control), read-out: Plant response rating, Crabgrass
  pest or weed control at 8 g/ha: 0%
[8]; [17]
  pest or weed control at 16 g/ha: 0%
  pest or weed control at 31 g/ha: 30%
  pest or weed control at 62 g/ha: 35%
[9]; post-emergence, Postemergence, scale 0 to 100, read-out: Plant response rating, Foxtail, Giant
  pest or weed control at 8 g/ha: 70%
[9]; [18]
  pest or weed control at 31 g/ha: 75%
  pest or weed control at 62 g/ha: 80%
[9]; pre-emergence, Preemergence, scale 0 to 100 (0 no effect, 100 complete control), read-out: Plant response rating, Foxtail, Giant
  pest or weed control at 8 g/ha: 0%
[9]; pre-emergence, Preemergence, 16 g ai/ha, scale 0 to 100, 0 no effect, 100 complete control, read-out: Plant response rating, Foxtail, Giant
  pest or weed control at 16 g/ha: 0%
[9]; [19]
  pest or weed control at 31 g/ha: 30%
  pest or weed control at 62 g/ha: 35%
[10]; post-emergence, Postemergence, scale 0 to 100, read-out: Plant response rating, Nutsedge, Yellow
  pest or weed control at 8 g/ha: 55%
[10]; [20]
  pest or weed control at 16 g/ha: 60%
  pest or weed control at 31 g/ha: 60%
  pest or weed control at 62 g/ha: 75%
[10]; pre-emergence, Preemergence, scale 0 to 100 (0 no effect, 100 complete control), read-out: Plant response rating, Nutsedge, Yellow
  pest or weed control at 8 g/ha: 0%
[10]; [21]
  pest or weed control at 16 g/ha: 40%
  pest or weed control at 31 g/ha: 60%
  pest or weed control at 62 g/ha: 60%
[11]; 8 g ai/ha, scale 0 to 100, read-out: Plant response rating, Chickweed
  pest or weed control at 8 g/ha: 95%
[11]; 62 g ai/ha, read-out: Plant response rating (scale of 0 to 100), Chickweed
  pest or weed control at 62 g/ha: 95%
